Results reported in patent US4474945A, “Anthracycline antibiotics” (priority 1981, dated 1984).
Converted amounts (≈) assume the structure as drawn. Read-outs that look alike come from different tables or passages of the source.

How the values were obtained:
[1] = test system: Mice; assay: Acute toxicity, mice, i.p.
[2] = test system: mouse leukemia cells L1210; assay: Growth inhibition of cultured L1210 cells; type: cell-based; conditions: for IC50: Mus musculus; for inhibition of growth and nucleic acid synthesis of L1210 cells (in words): mouse leukemia cells L1210
Protocol: For determination of the 50% growth inhibition concentration (IC50), 5×10^4 L1210 cells/ml (final concentration) were inoculated into RPMI 1640 medium (Rosewell Park Memorial Institutes 1640 medium) containing 20% calf serum. The anthracycline compounds of the present invention were added to give a final concentrations from 0.01 μg/ml to 0.25 μg/ml, while the control contained no drug. After incubation at 37° C. in a carbon dioxide incubator, the cell counts of the test and control cultures were measured for calculation of the IC50 concentration of antibiotic.

[3] = test system: L1210 leukemia; assay: Therapeutic effect (survival prolongation) on CDF1 mice bearing L1210 leukemia; type: in vivo, mouse (CDF1 mice); conditions: for Survival prolongation rate (T/C %): L1210-bearing CDF1 mice, i.p. every day for 10 days, control = 100; for survival prolongation effect (in words): mice transplanted with leukemia cells
Protocol: The therapeutic effect of 2-hydroxyaclacinomycin B was studied on CDF1 mice bearing L1210 leukemia. From 24 hours after 1×10^5 L1210 cells/animal were intraperitoneally transplanted to CDF1 mice, 2-hydroxyaclacinomycin B was intraperitoneally given everyday for 10 days. The prolongation of the survival time was calculated relative to the control animals receiving physiological saline as 100. Table 1 compares the in vitro and in vivo activities and toxicities of 2-hydroxyaclacinomycins A, B, and N and aclacinomycin A.

[4] = test system: DNA synthesis in L1210 cells; assay: DNA synthesis inhibition in cultured L1210 cells (14C-thymidine incorporation); type: cell-based; conditions: Mus musculus, 1 h, 60 minutes, 10% calf serum, 37° C., read-out: 50% Inhibition concentration (IC50), DNA synthesis inhibition
Protocol: (§1) Fifteen minutes after the anthracycline compounds of the present invention were added at varied concentrations, 0.05 μCi/ml (final concentration) of ^14 C-uridine or ^14 C-thymidine was added and cultivated at 37° C. for a further 60 minutes. The incorporation of the radioactive base was stopped by addition of 10% trichloroacetic acid. The acid-insoluble matters were recovered; washed three times with 10-5% trichloroacetic acid; and dissolved in formic acid.

[5] = test system: RNA synthesis in L1210 cells; assay: RNA synthesis inhibition in cultured L1210 cells (14C-uridine incorporation); type: cell-based, mouse; conditions: for IC50: Mus musculus, 1 h, cultured L1210 cells, 14C-uridine, 60 minutes, 10% calf serum, 37° C., read-out: 50% Inhibition concentration (IC50), RNA synthesis inhibition
Protocol: as §1

[6] = cited from earlier work
[7] = compared with aclacinomycin A; European Publication No. 30255; cited from earlier work
[8] = cultured L1210 cells, RPMI 1640 with 20% calf serum, 37° C., read-out: 50% Inhibition concentration (IC50), growth inhibition

## CCC1(O)CC(OC2CC(N(C)C)C(OC3CC(O)C(OC4CCC(O)C(C)O4)C(C)O3)C(C)O2)c2c(cc3c(c2O)C(=O)c2c(O)cc(O)cc2C3=O)C1C(=O)OC (centres unmarked) [2-Hydroxyaclacinomycin N, 2-hydroxyaclacinomycin N]
[1]
  Toxicity (acute): 45.7
[2]
  killing of mouse leukemia cells L1210 (in words): kill mouse leukemia cells L1210 at a low concentration
  inhibition of growth and nucleic acid synthesis of L1210 cells (in words): markedly inhibit the growth and the nucleic acid synthesis
[2]; [8]
  IC50: 0.04 µg/mL (≈ 0.0482 µM)
[3]; dose 0.63 mg/kg
  Survival prolongation rate (T/C %): 109%
[3]; dose 1.25 mg/kg
  Survival prolongation rate (T/C %): 128%
[3]; dose 2.5 mg/kg
  Survival prolongation rate (T/C %): 148%
[3]; dose 5 mg/kg
  Survival prolongation rate (T/C %): 202%
[3]; dose 7.5 mg/kg
  Survival prolongation rate (T/C %): 219%
[3]; dose 10 mg/kg
  Survival prolongation rate (T/C %): 144%
[3]; dose 12 mg/kg
  Survival prolongation rate (T/C %): 108%
[3]
  survival prolongation effect (in words): excellent survival prolongation effect
[4]
  IC50: 1.18 µg/mL (≈ 1.42 µM)
[5]
  IC50: 0.18 µg/mL (≈ 0.217 µM)
  RNA synthesis versus DNA synthesis inhibition (in words): inhibit RNA synthesis more specifically than DNA synthesis

## CCC1(O)CC(OC2CC(N(C)C)C(OC3CC(O)C(OC4CCC(=O)C(C)O4)C(C)O3)C(C)O2)c2c(cc3c(c2O)C(=O)c2c(O)cc(O)cc2C3=O)C1C(=O)OC (centres unmarked) [2-Hydroxyaclacinomycin A]
[6]; compared with aclacinomycin A, European Publication No. 30255
  cardio-toxicity (in words): less cardio-toxic, than aclacinomycin A
[1]
  Toxicity (acute): 50.0
[7]
  antitumor activity (in words): stronger antitumor activity
[2]
  killing of mouse leukemia cells L1210 (in words): kill mouse leukemia cells L1210 at a low concentration
  inhibition of growth and nucleic acid synthesis of L1210 cells (in words): markedly inhibit the growth and the nucleic acid synthesis
[2]; [8]
  IC50: 0.04 µg/mL (≈ 0.0483 µM)
[3]; dose 0.63 mg/kg
  Survival prolongation rate (T/C %): 124%
[3]; dose 1.25 mg/kg
  Survival prolongation rate (T/C %): 148%
[3]; dose 2.5 mg/kg
  Survival prolongation rate (T/C %): 176%
[3]; dose 5 mg/kg
  Survival prolongation rate (T/C %): 218%
[3]; dose 7.5 mg/kg
  Survival prolongation rate (T/C %): 220%
[3]; dose 10 mg/kg
  Survival prolongation rate (T/C %): 158%
[3]; dose 12 mg/kg
  Survival prolongation rate (T/C %): 120%
[3]
  survival prolongation effect (in words): excellent survival prolongation effect
[4]
  IC50: 0.85 µg/mL (≈ 1.03 µM)
[5]
  IC50: 0.14 µg/mL (≈ 0.169 µM)
  RNA synthesis versus DNA synthesis inhibition (in words): inhibit RNA synthesis more specifically than DNA synthesis

## CCC1(O)CC(OC2CC(N(C)C)C(OC3CC(O)C(OC4CCC(=O)C(C)O4)C(C)O3)C(C)O2)c2c(cc3c(c2O)C(=O)c2c(O)cccc2C3=O)C1C(=O)OC (centres unmarked) [Aclacinomycin A, reference compound]
[6]; compared with hitherto-developed anthracycline antibiotics
  toxicity and cardio-toxicity among hitherto-developed anthracycline antibiotics (in words): the least toxic and cardio-toxic among the hitherto-developed anthracycline antibiotics
[1]
  Toxicity (acute): 22.6
[2]; [8]
  IC50: 0.01 µg/mL (≈ 0.0123 µM)
[3]; dose 0.63 mg/kg
  Survival prolongation rate (T/C %): 107%
[3]; dose 1.25 mg/kg
  Survival prolongation rate (T/C %): 125%
[3]; dose 2.5 mg/kg
  Survival prolongation rate (T/C %): 186%
[3]; dose 5 mg/kg
  Survival prolongation rate (T/C %): 196%
[3]; dose 7.5 mg/kg
  Survival prolongation rate (T/C %): 123%
[3]; dose 10 mg/kg
  Survival prolongation rate (T/C %): Toxic
[4]
  IC50: 0.3 µg/mL (≈ 0.37 µM)
[5]
  IC50: 0.04 µg/mL (≈ 0.0493 µM)

## CCC1(O)CC(OC2CC(N(C)C)C(OC3CC4OC5CC(=O)C(C)OC5OC4C(C)O3)C(C)O2)c2c(cc3c(c2O)C(=O)c2c(O)cc(O)cc2C3=O)C1C(=O)OC (centres unmarked) [2-Hydroxyaclacinomycin B, 2-hydroxyaclacinomycin B]
[1]
  Toxicity (acute): 50.0
[2]
  killing of mouse leukemia cells L1210 (in words): kill mouse leukemia cells L1210 at a low concentration
  inhibition of growth and nucleic acid synthesis of L1210 cells (in words): markedly inhibit the growth and the nucleic acid synthesis
[2]; L1210, read-out: 50% Inhibition concentration (IC50), growth inhibition
  IC50: 0.03 µg/mL (≈ 0.0363 µM)
[3]; dose 0.63 mg/kg
  Survival prolongation rate (T/C %): 110%
[3]; dose 1.25 mg/kg
  Survival prolongation rate (T/C %): 131%
[3]; dose 2.5 mg/kg
  Survival prolongation rate (T/C %): 153%
[3]; dose 5 mg/kg
  Survival prolongation rate (T/C %): 200%
[3]; dose 7.5 mg/kg
  Survival prolongation rate (T/C %): 226%
[3]; dose 10 mg/kg
  Survival prolongation rate (T/C %): 139%
[3]; dose 12 mg/kg
  Survival prolongation rate (T/C %): 113%
[3]
  survival prolongation effect (in words): excellent survival prolongation effect
[3]; mouse, in vivo
  antitumor activity (in words): marked antitumor activity
[4]
  IC50: 1 µg/mL (≈ 1.21 µM)
[5]
  IC50: 0.22 µg/mL (≈ 0.266 µM)
  RNA synthesis versus DNA synthesis inhibition (in words): inhibit RNA synthesis more specifically than DNA synthesis
